Among the data in patent publication US5252581A, “Substituted aminothienopyridines, pharmaceutical composition and use” (Hoechst-Roussel Pharmaceuticals Inc., priority 1992, dated 1993) are IC50, Emax and EC50 values, retold here.

Where a name gives a salt, the structure may show the parent alone. Read-outs that look alike come from different tables or passages of the source.

In one test the target is T1, serotonin (5HT) uptake (Rattus norvegicus, UniProt P31652).
T1 construct: from tissue; host or cells: male Wistar rat whole brain minus cerebella, crude synaptosomes (S1)
Briefly: ^3 H-Serotonin Uptake in Rat Whole Brain Synaptosomes. The test is classed as biochemical, rat (Wistar). How it is done: A. Animals: Male CR Wistar rats (100-125 g).
3. […] This is used to dilute the specific activity of radiolabeled 5HT.
The dilution factor is 0.8.
5. For most assays, a 1 mM solution of the test compound is made up in suitable solvent and serially diluted such that the final concentration in the assay ranges from 2×10^-8 to 2×10^-5 M. Seven concentrations are used for each assay.
Male Wistar rats are decapitated and the brain rapidly removed. […] Homogenization should be done with 4-5 up and down strokes at medium speeds to minimize synaptosome lysis. […] The supernatant (S1) is decanted and is used for uptake experiments.
Tubes are incubated at 37° C. under a 95% O2 /5% CO2 atmosphere for 5 minutes. For each assay, 3 tubes are incubated with 20 μl of vehicle at 0° C. in an ice bath. After incubation all tubes are immediately centrifuged at 4000 g for 10 minutes. The supernatant fluid is aspirated and the pellets dissolved by adding 1 ml of solubilizer (Triton X-100+50% EtOH, 1:4 v/v). The tubes are vigorously vortexed, decanted into scintillation vials, and counted in 10 ml of Liquiscint scintillation counting cocktail. Active uptake is the difference between cpm at 37° C. and 0° C. The percent inhibition at each drug concentration is the mean of three determinations. IC50 values are derived from log-probit analysis.

In a further test the target is T2, 5HT3 Receptor (Homo sapiens, UniProt P46098).
T2 sequence (P46098 24-478): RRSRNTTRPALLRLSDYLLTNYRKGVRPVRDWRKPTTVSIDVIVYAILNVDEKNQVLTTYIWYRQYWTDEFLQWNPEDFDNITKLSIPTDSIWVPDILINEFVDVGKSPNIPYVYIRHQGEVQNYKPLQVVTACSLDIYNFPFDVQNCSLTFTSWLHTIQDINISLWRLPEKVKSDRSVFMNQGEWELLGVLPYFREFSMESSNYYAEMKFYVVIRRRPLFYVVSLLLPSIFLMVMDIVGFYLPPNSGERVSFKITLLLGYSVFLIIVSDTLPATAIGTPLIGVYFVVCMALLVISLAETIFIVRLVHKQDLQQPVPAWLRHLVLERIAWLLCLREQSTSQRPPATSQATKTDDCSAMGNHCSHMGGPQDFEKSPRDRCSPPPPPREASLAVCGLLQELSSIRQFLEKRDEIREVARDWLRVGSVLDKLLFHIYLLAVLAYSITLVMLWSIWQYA
Put plainly: 5HT3 Receptor Binding Assay.

In test [1] the target is T3, ^3 H-Norepinephrine reuptake (Rattus norvegicus, UniProt Q63380).
T3 construct: from tissue; host or cells: whole brain (WB), rat inferred
Put plainly: Inhibition of Biogenic Amine Reuptake, ^3 H-Norepinephrine (WB). The class given is biochemical.

In test [2] the target is T4, NMDA associated strychnine-insensitive glycine modulatory site (Rattus norvegicus, UniProt P35439).
T4 construct: prepared from cortical tissue obtained from male Sprague Dawley rats; from tissue; host or cells: male Sprague Dawley rat cortex, crude synaptosomal homogenate
Briefly: Enhancement of [^3 H]TCP Binding. The test is classed as biochemical, rat (Sprague Dawley). Particulars: for Emax: read-out: Enhancement of [^3 H]TCP Binding, % maximal glycine response.

Another test addresses T5, ^3 H-Dopamine reuptake (Rattus norvegicus, UniProt P23977).
T5 construct: str. = striatum; from tissue; host or cells: striatum, rat inferred
Briefly: Inhibition of Biogenic Amine Reuptake, ^3 H-Dopamine (Str). The following applies: str. = striatum. The test is classed as biochemical.

For test [3], the target named is T6, glycine binding site associated with the N-methyl-D-aspartate (NMDA) receptor complex (Rattus norvegicus, UniProt P35439).
T6 construct: Cortices of male Wistar rats are dissected over ice; from tissue; host or cells: male Wistar rat cortex, Triton-treated membranes
Briefly: Displacement of [^3 H]Glycine Binding. On the set-up: species or system rat (Wistar). As to the method:
Aliquots of 20 μl to the assay tube will give a final concentration of 10^-3 M.
4. […] Aliquots of 50 μl are added to yield a final assay concentration of 10 nM.
6. […] A stock solution of Triton-X 100, 10% can be prepared and stored in the refrigerator. Dilute 1.0 ml of Triton-X 100 to 10.0 ml with distilled water. On the day of the assay, the tissue homogenate (1:15 dilution) is preincubated with an aliquot of the 10% solution to give a final concentration of 0.04% (v/v).
Three cortices are pooled for one preparation.
1. Prepare assay tubes in triplicate.
2. Following the addition of the tissue, the tubes are incubated for 20 minutes in an ice-bath at 0°-4° C.
3. […] IC50 values for the competing compound are calculated by log-probit analysis of the data.

T1 sequence (P31652 whole entry): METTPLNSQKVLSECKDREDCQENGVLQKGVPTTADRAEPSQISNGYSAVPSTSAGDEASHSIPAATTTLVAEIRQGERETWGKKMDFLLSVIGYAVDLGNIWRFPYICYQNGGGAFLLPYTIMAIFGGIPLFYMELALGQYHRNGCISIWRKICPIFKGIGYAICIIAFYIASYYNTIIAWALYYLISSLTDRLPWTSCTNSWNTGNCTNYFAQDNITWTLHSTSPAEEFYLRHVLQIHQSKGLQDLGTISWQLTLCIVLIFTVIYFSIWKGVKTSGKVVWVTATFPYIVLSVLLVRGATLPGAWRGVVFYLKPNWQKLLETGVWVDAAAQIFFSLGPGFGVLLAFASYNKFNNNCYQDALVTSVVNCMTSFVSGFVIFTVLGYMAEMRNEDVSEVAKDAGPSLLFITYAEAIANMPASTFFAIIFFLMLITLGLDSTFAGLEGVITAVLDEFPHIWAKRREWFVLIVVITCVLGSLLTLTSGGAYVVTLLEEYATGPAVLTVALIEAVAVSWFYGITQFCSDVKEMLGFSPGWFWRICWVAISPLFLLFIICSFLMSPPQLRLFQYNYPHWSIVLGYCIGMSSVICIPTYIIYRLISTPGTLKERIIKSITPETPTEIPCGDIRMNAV
T3 sequence (Q63380 1-617): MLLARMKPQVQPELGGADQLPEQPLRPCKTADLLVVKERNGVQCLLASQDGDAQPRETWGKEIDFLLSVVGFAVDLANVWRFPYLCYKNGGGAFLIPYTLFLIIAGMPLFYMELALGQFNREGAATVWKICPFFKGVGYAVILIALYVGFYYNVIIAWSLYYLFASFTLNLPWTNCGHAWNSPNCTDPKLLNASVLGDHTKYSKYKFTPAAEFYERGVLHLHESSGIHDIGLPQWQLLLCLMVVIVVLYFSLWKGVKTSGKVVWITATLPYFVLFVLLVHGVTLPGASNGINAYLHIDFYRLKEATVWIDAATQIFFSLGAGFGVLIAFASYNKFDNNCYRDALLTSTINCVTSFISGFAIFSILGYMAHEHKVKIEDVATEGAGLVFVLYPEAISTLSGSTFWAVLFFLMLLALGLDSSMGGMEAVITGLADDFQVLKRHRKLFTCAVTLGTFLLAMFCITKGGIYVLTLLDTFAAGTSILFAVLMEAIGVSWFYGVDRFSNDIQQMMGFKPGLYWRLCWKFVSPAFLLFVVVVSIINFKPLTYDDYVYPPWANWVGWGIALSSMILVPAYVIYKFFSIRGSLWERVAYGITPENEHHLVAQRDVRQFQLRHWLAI
T5 sequence (P23977 whole entry): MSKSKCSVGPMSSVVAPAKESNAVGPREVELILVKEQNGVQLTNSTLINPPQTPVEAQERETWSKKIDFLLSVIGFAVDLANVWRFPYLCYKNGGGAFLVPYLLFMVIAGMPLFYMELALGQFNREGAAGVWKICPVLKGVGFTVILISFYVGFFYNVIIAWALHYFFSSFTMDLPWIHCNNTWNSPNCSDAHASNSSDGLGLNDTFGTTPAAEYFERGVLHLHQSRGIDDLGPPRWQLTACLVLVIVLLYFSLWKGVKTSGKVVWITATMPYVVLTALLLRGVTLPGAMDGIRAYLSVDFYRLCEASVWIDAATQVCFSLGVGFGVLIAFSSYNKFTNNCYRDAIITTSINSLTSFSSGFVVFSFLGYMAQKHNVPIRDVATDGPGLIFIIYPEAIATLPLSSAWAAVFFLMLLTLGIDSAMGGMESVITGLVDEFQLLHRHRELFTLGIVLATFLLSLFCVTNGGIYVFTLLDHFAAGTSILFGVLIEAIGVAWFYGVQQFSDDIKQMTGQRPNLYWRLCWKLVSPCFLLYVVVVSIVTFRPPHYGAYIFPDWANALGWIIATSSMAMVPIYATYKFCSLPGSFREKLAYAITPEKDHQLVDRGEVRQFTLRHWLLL

`CCCN(c1ccncc1)c1csc2ncccc12` [3-(Propyl-4-pyridinylamino)-thieno[2,3-b]-pyridine hydrochloride]: the concentration for half-maximal inhibition (IC50) amounted to 0.071 µM at serotonin (5HT) uptake, 4.6 µM at 5HT3 Receptor and 0.71 µM in test [1]. Consider `N[C@@H]1CONC1=O` [D-cycloserine, reference compound], for which the Emax in test [2] worked out at 80%. Turning to `NCC(=O)O` [Glycine, glycine, reference compound], in test [2], the Emax was 100%. For `CN(C)CCCN1c2ccccc2CCc2ccc(Cl)cc21` [Clomipramine, reference compound], the half-maximal inhibitory concentration (IC50) on 5HT3 Receptor is greater than 10 µM; against ^3 H-Dopamine reuptake, 31.5 µM.

For the molecule `NCC(=O)Nc1csc2ncccc12` [2-Amino-N-(thieno[2,3-b]pyridin-3-yl)acetamide], in test [2] (rat cortical homogenate, 2.5 nM [^3 H]TCP, 10^-7 M L-glutamic acid), the EC50 worked out at 14.4 µM. Besides, the Emax in test [2] was determined as 39%. Moreover, the concentration for half-maximal inhibition (IC50) in test [3] worked out at 21.8 µM. The molecule `CCCN(c1ccncc1)c1csc2cnccc12` [3-(Propyl-4-pyridinylamino)thieno[2,3-c]pyridine] showed an IC50 at serotonin (5HT) uptake ([…]) of 0.54 µM.

As usually defined, the IC50 is the midpoint of a concentration-inhibition curve. By EC50 is commonly meant the midpoint of the concentration-response curve.
